Measurements as given in ChEMBL document CHEMBL5303711, “ECBD screening data for assay EOS300108” (2023).
Structures can show the parent of a compound that is named as a salt. Calls of active or inactive are those of the source. How the calls were made is not given here.

Assay: Cytotoxicity activity against human HepG2 cells assessed by CellTiter-Glo luminescent cell viability assay.
Format: toxicity, cell-based
Design: assay stage confirmatory assay, source tissue liver
Conditions: HepG2 cells, read-out: IC50 relative

SMILES	CC50
CCCCc1cc(NC(=O)[C@H]2CC(=O)N(Cc3ccccc3)C2)[nH]n1	1.8 µM (active)
CC(C)[C@H](CO)Nc1nc(Nc2cccc(Cl)c2)c2ncn(C(C)C)c2n1 [PURVALANOLA]	14.4 µM (active)
COC(=O)[C@H](CC(C)C)NC(=O)c1ccc(NC[C@@H](N)CS)cc1-c1cccc2ccccc12	50 µM (inactive)
Cn1c(=O)c2ccc(C(=O)Nc3nc(-c4ccco4)cs3)nc2n(C)c1=O	10.5 µM (inactive)
Cc1ccc(S(=O)(=O)NCCCNC(=O)c2c3c(nn2C)CCCC3)cc1	4.6 µM (active)
CN(C)c1ccc(Cl)cc1NC(=O)c1cn(CCC2CCCCN2)nn1 (stereo not given)	6.8 µM (active)
Fc1ccc2[nH]c(CCNc3ncc(Cl)cn3)nc2c1	6.7 µM (active)
COc1ncccc1-c1csc(-c2ccoc2)n1	1 µM (active)
O=C(CCN1CCN(C(=O)OCc2cc(Cl)cc(Cl)c2)CC1)c1ccc2[nH]c(=O)oc2c1	20.6 µM (inactive)
CNC(=O)c1ccccc1Nc1nc(Nc2ccc3c(c2OC)CCC[C@H](N2CCN(CCO)CC2)C3)ncc1Cl [CEP-37440]	0.8 µM (active)
COc1ccccc1C(=O)Nc1ccccn1	8.4 µM (inactive)
CCCCc1c(C)[nH]n(-c2nc3ccccc3[nH]2)c1=O	8.9 µM (active)
Cc1occc1C(=O)Nc1ccc(N2CCCC2)cn1	8.8 µM (active)
CC(=O)N1CCCSc2ccc(S(=O)(=O)NCCCc3ccccc3)cc21	12.2 µM (active)
CC(C)Cn1c(=O)c2sccc2n2c(=O)n(CC(=O)Nc3ccc(F)cc3)nc12	50 µM (inactive)
Cc1cc(C)n(C(=O)Cc2cccs2)n1	16 µM (inactive)
O=C(CC1CCCN(c2cn[nH]c(=O)c2)C1)Nc1cccc(Cl)c1 (stereo not given)	8.1 µM (active)
CCOC(=O)c1cnn(-c2ccc(NC(=O)C(Cl)=C(Cl)Cl)cc2)c1C(F)(F)F	1 µM (active)
O=C(NO)c1cnc(NC2(c3ccccc3)CC2)nc1	7 µM (active)
CC(=O)[C@]1(O)Cc2c(O)c3c(c(O)c2[C@@H](O[C@H]2C[C@H](N)[C@H](O)[C@H](C)O2)C1)C(=O)c1ccccc1C3=O [IDARUBICIN HYDROCHLORIDE]	0.2 µM (active)
O=C1c2c(O)ccc(O)c2C(=O)c2c(NCCNCCO)ccc(NCCNCCO)c21 [MITOXANTRONE]	0.8 µM (active)
Cc1ccc(O)c([C@H](CCN(C(C)C)C(C)C)c2ccccc2)c1 [TOLTERODINE TARTRATE]	14.2 µM (active)

SMILES	CC50
CCc1ccc(NC(=O)Nc2ccc3c(c2)N(S(=O)(=O)CC)CC3)cc1	2.4 µM (active)
CN(C)C(=O)c1cccc(CN(C)c2ccccc2CO)c1	10.9 µM (active)
N#Cc1ccc(COC[C@H]2O[C@@H](n3c(NCc4ccc(Cl)c(Cl)c4)nc4c(N)ncnc43)[C@H](O)[C@@H]2O)cc1	3 µM (active)
Cc1ccc(NC(=O)c2ccc(CN3CCN(C)CC3)cc2)cc1Nc1nc(-c2cccnc2)cs1 [MASITINIB]	3.5 µM (active)
O=C(NCCCN1CCOCC1)C1CCN(c2nn3cc(-c4ccc(F)cc4)nc3s2)CC1	5.8 µM (active)
N#Cc1ccc2[nH]c(O)c(-c3ccc(CN4CCOCC4)cn3)c2c1 [AZD-1080]	7.3 µM (active)
CCC(C)NC(=O)N1CC(Oc2ccc(-c3noc(C4CCOCC4)n3)cc2)C1 (stereo not given)	4.8 µM (active)
CN1CCC2(CC1)CN(S(=O)(=O)c1ccc(Cl)s1)Cc1ccccc1O2	9.7 µM (active)
CC(C)(C)C(=O)/C(=C/c1cccc([N+](=O)[O-])c1)n1cncn1	0.6 µM (active)
Cc1cccc2cc(C(=O)Nc3ccc(N4CCN(C)CC4)cn3)oc12	12.6 µM (active)
c1ccc2c(-c3cnn4cc(-c5ccc(N6CCNCC6)cc5)cnc34)ccnc2c1	0.5 µM (active)
CC1CCN(CCNC(=O)c2c(O)c3sccc3n(Cc3ccccc3)c2=O)CC1	22.3 µM (inactive)
O=C(/C=C/c1ccc2ccccc2n1)c1ccncc1	1.1 µM (active)
COc1ccccc1-c1cc(Nc2cccc(CS(N)(=O)=O)c2)ncn1	2.5 µM (active)
CCN(CC)CCCNC(=O)C1CCN(c2ncc(-c3ccccc3)cn2)CC1	9.7 µM (active)
Cc1ccc(-c2cnn3c(N4CCN(CCO)CC4)cc(C)nc23)cc1	8.9 µM (active)
Cc1cc(C)cc(C(=O)N2CCN(c3cc(=O)n(C(C)C)c(=O)n3C(C)C)CC2)c1	3.5 µM (active)
O=S(=O)(c1cccs1)N1CCN(C[C@H](O)COc2cc(Cl)ccc2Cl)CC1	8.9 µM (active)
CCN1CCN(Cc2cc(=O)oc3cc(-c4ccccc4)c(O)cc23)CC1	3.8 µM (active)
CC(C)CCNC(=O)COc1ccc(-c2nc(C(C)C)no2)cc1	3.2 µM (active)
COc1ccc(-c2nc(Cn3ncc(Cl)c(Cl)c3=O)co2)cc1	11 µM (active)
Cc1cc(F)ccc1N1CCC(NCC(O)c2cccc(O)c2)CC1 (stereo not given)	10.1 µM (active)

SMILES	CC50
Oc1ccc2c(c1)CC[C@H](c1ccccc1)[C@@H]2c1ccc(OCCN2CCCC2)cc1	2.9 µM (active)
Nc1nc2nn[nH]c2c(=O)[nH]1 [8-AZAGUANINE]	7.5 µM (active)
CC(C)CNC(=O)N1CC(Oc2ccc(-c3noc(C4CCOCC4)n3)cc2)C1	4.3 µM (active)
Cc1cc(-c2cc(O)ccc2Cl)cc2nnc(Nc3ccc(OCCN4CCCC4)cc3)nc12	1.4 µM (active)
CCN(C(=O)c1ccco1)c1nc2ccccc2s1	0.9 µM (active)
CCc1n[nH]cc1C(=O)N[C@H]1CC[C@H](Nc2nccc(-c3ccccn3)n2)C1	3.9 µM (active)
CN(C)S(=O)(=O)N1CCN(C(=O)c2cnn(-c3ccc(Cl)cc3)c2C(F)(F)F)CC1	5.2 µM (active)
COc1ccccc1OCC(=O)Nc1nc(-c2ccccn2)cs1	2.7 µM (active)
C#CCN(Cc1cc2c(=O)[nH]c(C)nc2cc1Br)c1ccc(C(=O)NCc2cccnc2)cc1	0.1 µM (active)
C[C@@H]1CN(CC(=O)Nc2ccc3c(c2)Cc2cccc(-c4cc(=O)cc(N5CCOCC5)o4)c2S3)C[C@H](C)O1	17.8 µM (inactive)
COc1ccc(NS(=O)(=O)c2ccc3onc(C(=O)N4CCCC4)c3c2)cc1	7.1 µM (active)
CCS(=O)(=O)N1CCc2ccc(NC(=O)Nc3ccc(Cl)cc3)cc21	14.3 µM (inactive)
COc1cc(N)c(Cl)cc1C(=O)NC1CCN(CCCOc2ccc(F)cc2)CC1OC (stereo not given) [CISAPRIDE MONOHYDRATE]	38 µM (inactive)
CC(CNC(=O)C1CCN(C)CC1)Cc1cccc2ccccc12 (stereo not given)	11.2 µM (active)
Cc1c(C(=O)Nc2cccc(C(F)(F)F)c2)cc(-c2ccccc2)n1CCCN1CCOCC1	13.9 µM (inactive)
CC(C)(C)Cn1c(N)nc2ccc(-c3[nH]c(C(C)(C)C)nc3-c3ccc(F)cc3)nc21 [RALIMETINIB MESYLATE]	13.2 µM (active)
CCOC(=O)c1cnc2ccc(-c3cncc(NS(=O)(=O)c4ccccc4)c3)cn12	3.8 µM (active)
O=C(c1ccc(F)cc1)N1CCN(Cc2noc(-c3ccc(F)cc3)n2)CC1	5.8 µM (active)
Cc1cccc(-c2noc(-c3ccc(N4CCN(C)CC4)nc3)n2)c1	5 µM (active)
CCN1CCN(C(=O)Cc2ccc(Nc3ncc(F)c(Nc4ccc(C(=O)Nc5ccccc5Cl)cc4)n3)cc2)CC1	1.8 µM (active)
Cc1cc(O)c(-c2ccc([C@@H](C)CN)cc2)c2c1[nH]c(=O)c1sccc12	0.1 µM (active)
